Results published in patent US20250296910A1, “BENZAMIDE ENAMINONE DERIVATIVES AND METHODS OF USE THEREOF” (University of Maryland, Eastern Shore, priority 2022, published 2025).

Tests used:
[1] = system: maximal electroshock (MES) model; test: maximal electroshock (MES) test (ETSP anticonvulsant screening); assay type: in vivo, Carworth Farms no. 1 (CF1) mice; details: ip, mice; for animals protected in MES model: 300 mg/kg
Description: (§1) Initial evaluation for anticonvulsant activity was done by the Epilepsy Therapy Screening Program Branch, National Institute of Neurological Disorders and Stroke. Phase I evaluation included three tests: maximal electroshock (MES), 6 Hz, and rotarod test for neurological toxicity (Tox). The studies were done in normal adult male Carworth Farms no. 1 (CF1) mice using four or more mice pre-test. Intraperitoneal (ip) administration of the test compounds was carried out as a suspension in 0.5% methylcellulose. The compounds were tested at doses ranging from 30 mg/kg to 300 mg/kg. The animals were pretreated with the test compound at time intervals of 0.5 h and 2 h. The rotarod neurologic toxicity test was completed at each dose and time point. The MES test is a high frequency (60 Hz), short duration ([…]) stimulus delivered through corneal electrodes in normal rodents while the 6 Hz 44 mA psychomotor test is a long duration (3 s) and low frequency (6 Hz). Compounds active in the MES Identification Phase tests are screened for their ability to block seizures induced in the 6 Hz psychomotor focal seizures animal model of epilepsy. The compounds effective in the 6-Hz model during the Identification phase become candidates for advanced screening in the Differentiation Phase.

[2] = system: 6 Hz 44 mA animal model; test: 6 Hz 44 mA psychomotor seizure test (ETSP anticonvulsant screening); assay type: in vivo, Carworth Farms no. 1 (CF1) mice; details: 300 mg/kg, ip, mice
Description: as §1

O=C1C=C(NC(=O)c2ccc(C(F)(F)F)cc2)CC(C(F)(F)F)C1 (stereo not shown) [Compound 7, N-(3-oxo-5-(trifluoromethyl)cyclohex-1-en-1-yl)-4 (trifluoro-methyl)-benzamide]
25%: protection in MES model ([1]; 100 mg/kg, after 2 h) | animals protected in MES model ([1]; 0.5 h) | animals protected in MES model ([1]; 2 h) | protection in 6 Hz 44 mA model [2]
